From US11517554B2, “Method for preventing or treating Alzheimer's disease” (OLATEC THERAPEUTICS LLC, priority 2018, dated 2022)

Experiments:
[1] = tested on: pro-IL-1; assay: In vitro screening: inhibition of pro-IL-1; format: cell-based
Method: (§1) To investigate potential off-target activity of dapansutrile, secondary pharmacological effects were assessed through in vitro screening assays. […] An evaluation of 68 critical transmembrane and soluble receptors, ion channels and monoamine transporters were performed for off-target effects of dapansutrile. An additional 69 receptors and enzymes were evaluated with dapansutrile for potential activity in a follow-on study that focused on enzymes involved in inflammatory cascades. A single identified target, the PDE4 enzyme, was inhibited in a concentration range of ≥100 μM (13 μg/mL) and was dose-responsive for effect, but subsequent studies were not conclusive.

[2] = tested on: APP/PS1 mice; assay: Morris water maze test in APP/PS1 mice; format: in vivo
Method: (§2) In the study design, 6-month-old wild-type (WT), and AD transgenic APP/PS1[deltaE9] mice were treated with oral dapansutrile via feed pellets ad libitum (approximately 0, 50 or 100 mg/kg/day based on feed concentrations of 0, 3.75 or 7.5 g/kg and food consumption of 4 g/day) for the treatment duration of 3 months. At 9 months old, behavior testing of the mice was performed. In addition, the brains of the mice were extracted, and blood samples were collected. The brains of the mice from each group were performed for electrophysiological and neuronal morphological analysis, cytokine levels and other assays.
Spatial memory formation and retention were assessed using the Morris water maze (MWM) assay. A 10 cm escape platform was submerged 1 cm below the water surface into a circular plastic pool filled up with opaque water. Three visual cues were positioned on the walls around the pool. A digital camera was installed above the center of the maze. Images will be acquired and transmitted to a PC running the tracking software ANY-maze (ANY-maze). On the first three days (pre-training) the mice were trained using a visible platform (the platform was placed above the water surface).
To assess spatial memory formation, the mice were trained to locate the hidden platform for 8 consecutive days. The escape latency of each trial (4 per day with an interval of 3-5 min) was recorded and analyzed by the tracking software. At training day 3 and at day 9, memory retention was assessed in a probe trial performed by removing the platform and analyzing the search pattern used by each mouse for a fixed time of 45 seconds.
The escape latency which describes the time mice need to find the hidden platform was measured and was analyzed as the mean value of the 4 trials each day and shown in FIG. 3A; all genotypes decreased the escape latency from day 1 to day 8. For example, on day 5, wildtype mice (N=8) needed 23.59±4.08 seconds to reach the platform. APP/PS1 (500 mg/kg/day dapansutrile treated) mice (N=5) needed 37.31±4.96 seconds, and APP/PS1 (1000 mg/kg dapansutrile treated) mice (N=6) needed 21.30±3.19 seconds (p value=0.021), compared to APP/PS1 (control food) mice (n=6) needed 42.04±6.89 seconds.
To provide the evidence for cognitive learning 24 hours after the last training session, a reverence test was performed (probe trial) on training day 9. Here, mice were tested in the water maze without the platform to escape and the time was measured in which quadrant the mice spend their time. We compare the mean time in percentage of the three non-target quadrants (NT) to the time in percentage of the target quadrant (TQ, platform was located during training period). […] Whereas there was no preference for a TQ over NT in APP/PS1 (control food) and APP/PS1 500 mg/kg/day (low dose).

[3] = tested on: AIM2 inflammasome pathway; assay: In vitro screening: cytokine production via AIM2 inflammasome pathway; format: cell-based
[4] = tested on: IL-1β challenged mice; assay: IL-6 and MPO levels after IL-1β intraperitoneal challenge in treated mice (ELISA); format: in vivo; conditions: 200 mg/kg, 8 injections over 4 days
Method: Mice were treated with 200 mg/kg dapansutrile (OLT1177™) for 8 injections over 4 days. Mice were trained on a rotarod on day 3. Twelve hours after the last injection, mice were run on the rotarod for distance. One hour after the rotarod, mice were challenged with 60 ng IL-1β intraperitoneally; mice were then sacrificed 4 hours later. Whole blood, plasma, brain, and lung of the mice were collected. Whole blood was cultured, plasma was frozen. Brain was processed for cytokine analysis. Each group had N=5. Ex vivo samples were obtained from the brain of mice treated with vehicle or dapansutrile and subjected to exhaustive exercise.

[5] = tested on: PDE4 enzyme; assay: Off-target screening: PDE4 enzyme inhibition; format: biochemical
Method: as §1

[6] = tested on: APP/PS1 mice; assay: Cytokine levels of brain homogenates of APP/PS1 mice (ELISA); format: in vivo; conditions: 3 months, vs control food
Method: as §2
One hemisphere of each mouse was homogenized in STKM-buffer and centrifuged for 10 min at 4° C. with 13,000 g. The supernatant of the brain lysate was collected and measured for pro-inflammatory mediators IL-6 and IL-1β by ELISA by diluting the sample 1:2. […] The IL-1β levels were reduced in APP/PS1 mice treated with dapansutrile at a low dose (500 mg/kg/day, p value=0.0287) and a medium dose (1000 mg/kg/day, p value=0.0368) compared to APP/PS1 mice fed with control food (FIG. 2B)

[7] = tested on: opioid receptors; assay: Off-target screening: opioid receptors; format: binding; conditions: screening assay
Method: as §1

[8] = tested on: NLRC4 inflammasome pathway; assay: In vitro screening: cytokine production via NLRC4 inflammasome pathway; format: cell-based
[9] = target: T1, COX-2 (Homo sapiens, UniProt P35354); assay: Off-target screening: COX-2; format: biochemical; conditions: screening assay
T1 sequence (P35354 18-604): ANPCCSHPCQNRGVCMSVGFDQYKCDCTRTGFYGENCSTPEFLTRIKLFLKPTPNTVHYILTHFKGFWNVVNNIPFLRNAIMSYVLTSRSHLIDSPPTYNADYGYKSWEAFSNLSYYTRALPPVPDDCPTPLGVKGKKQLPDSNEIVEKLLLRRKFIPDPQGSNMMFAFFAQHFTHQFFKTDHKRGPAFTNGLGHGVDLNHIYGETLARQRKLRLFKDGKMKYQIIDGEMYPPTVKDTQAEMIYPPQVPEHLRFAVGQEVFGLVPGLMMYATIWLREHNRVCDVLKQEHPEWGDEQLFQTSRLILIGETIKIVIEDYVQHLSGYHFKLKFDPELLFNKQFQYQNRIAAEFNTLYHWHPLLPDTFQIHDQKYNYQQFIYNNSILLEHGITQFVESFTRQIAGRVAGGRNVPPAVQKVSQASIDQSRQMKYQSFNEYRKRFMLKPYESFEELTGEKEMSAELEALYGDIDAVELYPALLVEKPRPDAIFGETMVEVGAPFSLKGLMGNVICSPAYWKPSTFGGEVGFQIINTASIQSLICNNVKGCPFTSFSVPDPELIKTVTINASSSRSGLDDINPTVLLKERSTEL
Method: as §1

[10] = tested on: 68 critical transmembrane and soluble receptors, ion channels and monoamine transporters; additional 69 receptors and enzymes; assay: Off-target screening panels (68 receptors, ion channels, monoamine transporters; additional 69 receptors and enzymes); conditions: all targets other than PDE4
Method: as §1

[11] = tested on: pro-IL-18; assay: In vitro screening: inhibition of pro-IL-18; format: cell-based
Method: as §1

[12] = target: COX-1 (Homo sapiens, UniProt P23219); assay: Off-target screening: COX-1; format: biochemical; conditions: screening assay
Method: as §1

[13] = tested on: APP/PS1 mice hippocampal slices, Schaffer collateral CA3 to CA1 pathway; assay: Long-term potentiation (LTP) in acute hippocampal slices of APP/PS1 mice; format: in vivo; conditions: for normalized mean LTP of last 5 minutes of recording: APP/PS1 mice, 55-60 min after TBS, APP/PS1 untreated 1.303, wildtype 1.553
Method: as §2
Given the observed recovery in the impaired learning and memory processes in APP/PS1 mice treated with 1000 mg/kg/day dapansutrile (Example 5), we were interested in determining whether hippocampal network function would be recovered following medium dose of dapansutrile administration. For this purpose, we analyzed synaptic plasticity at the Schaffer collateral pathway connecting the CA3 with the CA1 subfield, one of the most extensively studied synapses in the central nervous system. Long-term potentiation (LTP) as a cellular correlation of learning processes at the Schaffer collateral CA3 to CA1 pathway was induced by theta-burst stimulation (TBS) after 20 min of baseline recording.
Acute hippocampal slices were prepared from mice in four groups including wild-type, APP/PS1, APP/PS1 treated with 500 mg/kg/day and APP/PS1 treated with 1000 mg/kg/day of dapansutrile. Briefly, mice were deeply anesthetized with 100% CO2, killed, and then brains were quickly removed and transferred into ice-cold carbogenated (95% O2 and 5% CO2) artificial CSF (ACSF) solution. Afterward, the hippocampus was dissected and transverse hippocampal slices (400 μm) were obtained using a manual tissue chopper. The hippocampal slices were transferred to an interface recording chamber, where they were incubated at 32° C. with a constant flow rate (0.5 ml/min) of carbogenated ACSF for 2 h before the start of recordings. Field excitatory post synaptic potentials (fEPSPs) were recorded in the stratum radiatum of the CA1 region in hippocampal slices. Responses were evoked by stimulation of the Schaffer collateral pathway using two electrodes. These stimulation electrodes (S1 and S2) were positioned equidistantly on both sides of the recording electrode and, by this means, two independent stimulation pathways could be used for the same CA1 recording region. For recording fEPSPs (measured as the first slope function), the recording electrode was placed in the CA1 apical dendritic layer and signals were amplified by a differential amplifier and digitized. […] The slope of fEPSPs was measured over time for 60 min and normalized to the baseline. […]

[14] = exhaustive exercise, 60 ng IL-1β i.p., 4 hours later, vs vehicle

Chain of COX-1 (P23219 24-599): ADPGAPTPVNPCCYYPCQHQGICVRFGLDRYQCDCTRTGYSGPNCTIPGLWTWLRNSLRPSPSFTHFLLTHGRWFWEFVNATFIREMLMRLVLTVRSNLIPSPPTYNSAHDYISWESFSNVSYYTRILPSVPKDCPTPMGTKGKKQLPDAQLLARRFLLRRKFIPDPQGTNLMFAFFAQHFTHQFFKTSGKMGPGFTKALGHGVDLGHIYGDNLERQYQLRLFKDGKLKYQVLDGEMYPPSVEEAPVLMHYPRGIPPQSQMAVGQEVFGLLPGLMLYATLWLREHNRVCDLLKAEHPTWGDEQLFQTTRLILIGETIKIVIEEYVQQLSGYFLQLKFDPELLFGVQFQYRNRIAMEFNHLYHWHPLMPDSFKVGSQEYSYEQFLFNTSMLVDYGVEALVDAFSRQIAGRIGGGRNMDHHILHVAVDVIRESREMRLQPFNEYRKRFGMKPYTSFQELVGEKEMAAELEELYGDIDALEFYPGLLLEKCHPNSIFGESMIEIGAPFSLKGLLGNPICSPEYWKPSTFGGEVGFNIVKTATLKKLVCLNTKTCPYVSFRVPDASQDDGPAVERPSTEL

concentration range in which PDE4 enzyme was inhibited ([5]; dose-responsive, subsequent studies not conclusive): ≥ 100 µM | concentration range in which PDE4 enzyme was inhibited ([5]; same bound given in μg/mL): ≥ 13 µg/mL | interaction with opioid receptors [7]: no interaction | direct effects on COX-2 [9]: no direct effects | other effects in the screening assays [10]: No other effects were noted | direct effects on COX-1 [12]: no direct effects
SMILES: CS(=O)(=O)CCC#N [dapansutrile, 3-Methanesulfonylpropionitrile]
inhibition of pro-IL-1 [1]: no inhibition | escape latency (time to reach the hidden platform) ([2]; 500 mg/kg/day, day 5, N=5, APP/PS1 control food 42.04±6.89, wildtype 23.59±4.08): 37.31 ± 4.96 s | preference for the target quadrant (TQ) over non-target quadrants (NT), probe trial ([2]; 500 mg/kg/day, day 9): no preference | escape latency (time to reach the hidden platform) ([2]; 1000 mg/kg, day 5, N=6, p value=0.021, APP/PS1 control food 42.04±6.89, wildtype 23.59±4.08): 21.30 ± 3.19 s | preference for the target quadrant (TQ) over non-target quadrants (NT), probe trial ([2]; 1000 mg/kg/day, day 9, p value=0.0001): significant preference | inhibitory effect on cytokine production via the AIM2 inflammasome pathway [3]: no inhibitory effect | level of systemic IL-1β after IL-1β stimulation ([4]; data not shown): also reduced | level of systemic IL-6 after IL-1β stimulation ([4]; data not shown): also reduced | level of systemic MPO after IL-1β stimulation ([4]; data not shown): also reduced | IL-6 level in the brain [4, 14]: reduced levels | myeloperoxidase (MPO) level in the brain [4, 14]: reduced levels | IL-1β levels in brain lysate ([6]; 500 mg/kg/day oral via feed, p value=0.0287): reduced | IL-6 levels in brain lysate ([6]; 1000 mg/kg/day oral via feed, p value=0.0035): reduced | IL-1β levels in brain lysate ([6]; 1000 mg/kg/day oral via feed, p value=0.0368): reduced | inhibitory effect on cytokine production via the NLRC4 inflammasome pathway [8]: no inhibitory effect | inhibition of pro-IL-18 [11]: no inhibition | LTP impairment in APP/PS1 mice ([13]; 1000 mg/kg/day): rescued | normalized mean LTP of last 5 minutes of recording ([13]; low dose (500 mg/kg/day), N=2, n=8): 1.198 | normalized mean LTP of last 5 minutes of recording ([13]; medium dose (1000 mg/kg/day), N=1, n=7): 1.469 | LTP deficit in APP/PS1 mice ([13]; low dose, 500 mg/kg/day): not able to improve
